This is an account of results in PMC7071032, “In Vitro Inhibition of Hsp90 Protein by Benzothiazoloquinazolinequinones Is Enhanced in The Presence of Ascorbate. A Preliminary In Vivo Antiproliferative Study” (Molecules, 2020).

For one test, the system named is PARP. The test is described as follows: Immunoblot of PARP protein integrity in TLT cells. In kind it is cell-based, murine. The conditions noted are these: 5 µM plus 1 mM ascorbate, 4 h. As to the method: Cancer cells were incubated for 4 h with 5 µM menadione (K3) or 15 either in the absence or in the presence of 1 mM ascorbate (Asc). Ctl represents control untreated cells. * p < 0.05 as compared to control conditions. Cancer cells were incubated for 4 h in the absence and in the presence of compounds. Afterward, cells were washed twice with ice-cold PBS and then resuspended in RIPA lysis buffer supplemented with 1% protease inhibitor cocktail (Sigma–Aldrich, St. Louis, MO, USA) and 3% phosphatase inhibitor cocktail (Calbiochem, Darmstadt, Germany). Treatment of samples and electrophoresis conditions were conducted as previously reported. Mouse monoclonal primary antibodies against hsp90α/β C-terminus (F8), and against β-actin (clone AC-15), were purchased from Santa Cruz Biotechnology (Santa Cruz, CA, USA) and from Abcam (Cambridge, UK), respectively. Rabbit polyclonal antibodies against PARP were purchased from BD Biosciences (San Diego, CA, USA). Goat anti-rabbit antibody and rabbit anti-mouse polyclonal antibody were purchased respectively from Chemicon International (Temecula, CA, USA) and DakoCytomation (Glostrup, Denmark).
On the technique in general: In western blotting, separated proteins are transferred to a membrane and probed.

Another test has as its system Hsp90. The experiment in a line: Immunoblot of Hsp90 protein integrity in T24 cells. Format: cell-based, human. The note with it: 5 µM quinone plus 1 mM ascorbate, 4 h. As to the method:
Nevertheless, when incubation was done in the presence of 1 mM ascorbate (vitamin C) plus quinones (including menadione), a new peptide fragment of about 70 kD was detected by the antibody against Hsp90.
Figure 1 Effects of selected quinones of Hsp90 (A) and poly(ADPribose)polymerase (PARP) (B) protein integrity in T24 cells. Cancer cells were incubated for 4 h with 5 µM menadione (K3), 15, 16, 19, or 20 either in the absence or in the presence of 1 mM ascorbate (Asc). Ctl represents control untreated cells. * p < 0.05 as compared to control conditions.
Cancer cells were incubated for 4 h in the absence and in the presence of compounds. Afterward, cells were washed twice with ice-cold PBS and then resuspended in RIPA lysis buffer supplemented with 1% protease inhibitor cocktail (Sigma–Aldrich, St. Louis, MO, USA) and 3% phosphatase inhibitor cocktail (Calbiochem, Darmstadt, Germany). Treatment of samples and electrophoresis conditions were conducted as previously reported. Mouse monoclonal primary antibodies against hsp90α/β C-terminus (F8), and against β-actin (clone AC-15), were purchased from Santa Cruz Biotechnology (Santa Cruz, CA, USA) and from Abcam (Cambridge, UK), respectively. Rabbit polyclonal antibodies against PARP were purchased from BD Biosciences (San Diego, CA, USA). […]

The subject of the next test is DU-145 (prostate) cells. Further details: method as in doi:10.1016/j.tetlet.2015.07.034. The note with it: read-out: IC50 ± SEM DU-145, MTT, data from Valderrama et al. ref 16; cited from earlier work.
For test [1], the system named is panel of cancer cells (T24, DU-145, MCF-7). The experiment in a line: MTT reduction assay, panel of cancer cells (means, ranges, selectivity index). Format: cell-based, human. The conditions noted are these: for IC50: Homo sapiens. The procedure: As positive control, two well-known anticancer drugs, namely TAM and 5-FU, were also tested on these cell lines. […] Regarding 5-FU, it is a broad-spectrum chemotherapeutic drug used to treat a variety of malignancies. Particularly, it has a long history of use against bladder tumors.
Such a selective index was calculated as the ratio between IC50 values of healthy cells/IC50 values in cancer cells.
Cells were seeded into 96-well plates at a density of 10,000 cells/well for 24 h and then incubated for 48 h with or without the quinone derivatives. […] The IC50 values were determined using the GraphPad Prism software (San Diego, CA, USA). Further incubation procedures and optical density reading of colored solutions were performed according to Benites et al..

The subject of a further test is T24 cells. The experiment in a line: Clonogenic assay. Format: cell-based, human. The conditions noted are these: for cell growth compared to control conditions (100%), in brackets / number of colony forming units (CFUs): T24 cells; for number of colony forming units (CFUs): 24 h treatment, 10 days growth. The procedure: Indeed, at a dose of 0.25 µM, it decreased from 195 to 72 the number of CFUs. Otherwise, it inhibits the proliferation of T24 cells by 63% as compared to the control untreated cells. […] The percentages of the observed cell growth compared to control conditions (100%) are indicated in brackets. […] Cells were allowed to adhere overnight, and then treated with quinones for 24 h. Afterward, they were washed with warm PBS, given fresh medium, and allowed to grow for 10 days. Clonogenic survival was determined by fixing and staining colonies using crystal violet and further counting their number. The number of colonies calculated under control conditions was set as 100%.

The subject of test [2] is poly(ADPribose)polymerase (PARP). The experiment in a line: Immunoblot of PARP protein integrity in T24 cells. Format: cell-based, human. The conditions noted are these: 5 µM, 4 h, regardless of the presence of ascorbate (1 mM). As to the method:
Figure 1 Effects of selected quinones of Hsp90 (A) and poly(ADPribose)polymerase (PARP) (B) protein integrity in T24 cells. […] Ctl represents control untreated cells. * p < 0.05 as compared to control conditions. […] This was the case regardless of the presence of ascorbate (1 mM). The obtained results make a potential role of apoptosis unlikely to be the underlying mechanism of cell impairment induced by quinones, including menadione. Indeed, PARP is a substrate of caspase-3, therefore, when an apoptosis process is triggered, it is expected that PARP protein will be cleaved yielding a second protein band also recognized by the anti-PARP antibody. Cancer cells were incubated for 4 h in the absence and in the presence of compounds. Afterward, cells were washed twice with ice-cold PBS and then resuspended in RIPA lysis buffer supplemented with 1% protease inhibitor cocktail (Sigma–Aldrich, St. Louis, MO, USA) and 3% phosphatase inhibitor cocktail (Calbiochem, Darmstadt, Germany). Treatment of samples and electrophoresis conditions were conducted as previously reported. Mouse monoclonal primary antibodies against hsp90α/β C-terminus (F8), and against β-actin (clone AC-15), were purchased from Santa Cruz Biotechnology (Santa Cruz, CA, USA) and from Abcam (Cambridge, UK), respectively. Rabbit polyclonal antibodies against PARP were purchased from BD Biosciences (San Diego, CA, USA). […]

The subject of another test is T24 (bladder) cells. Further details: method as in doi:10.1016/j.tetlet.2015.07.034. The conditions noted are these: MTT, data from Valderrama et al. ref 16, read-out: IC50 ± SEM T24; cited from earlier work.

“And” between values parts separate entries of the source, which are not always exact repeats. Equal values may be shown once. Read-outs that look alike come from different tables or passages of the source.

Broadly, the IC50 is the concentration that gives 50% inhibition. In the case of `Cc1ccc2c(c1)SC1=NC3=C(C(=O)c4ccccc4C3=O)C(C)(O)N12` (stereo not drawn) [Compound 15], the PARP degradation entry in the test with PARP is “not PARP degradation”. Also, the Hsp90 protein cleavage result in the test on Hsp90 is recorded as “induced an oxidative cleavage of Hsp90”. The IC50 with DU-145 (prostate) cells was 0.11 ± 0.03 µM; in test [1] (read-out: IC50 values on the panel of cancer cells (range over cell lines)) it was 0.11 to 1.77 µM; in test [1] (read-out: mean IC50 value calculated from the individual IC50 values of the three cancer cell lines) it was 1.1 to 1.61 µM; in the test with T24 (bladder) cells, 0.22 ± 0.06 µM. The “MSI: mean selective index” value in test [1] (IC50 values of fibroblasts (AG 1523)/IC50 values of tumor cells (T24, DU-145, MCF-7)) was 29.4. Further, the inhibition at 0.25 µM in the test on T24 cells (Homo sapiens, T-24, clonogenic assay, 0.25 µM, read-out: inhibition of the proliferation of T24 cells as compared to control untreated cells) worked out at 63%. Besides, the “cell growth compared to control conditions (100%), in brackets” value in the test on T24 cells (0.025 µM) is on record as 92%; in the test on T24 cells (0.125 µM), 83%; with T24 cells (0.25 µM), 37%; in the test with T24 cells (1.25 µM) it was 11%; in the test on T24 cells (2.5 µM), 8%; with T24 cells (5.0 µM), 1%. In addition, the “number of colony forming units (CFUs)” value is 180 ± 11 CFUs in the test on T24 cells (0.025 µM); 162 ± 18 CFUs with T24 cells (0.125 µM); 72 CFUs and 72 ± 5 CFUs in the test on T24 cells (0.25 µM); 22 ± 9 CFUs with T24 cells (1.25 µM); 16 ± 3 CFUs with T24 cells (2.5 µM); 2 ± 1 CFUs with T24 cells (5.0 µM). In test [2], the PARP cleavage entry was “no effect on PARP protein integrity”.
